pIC50: −log10 of the molar value. Where two headings read alike, the source gives them in different places.

One experiment addresses T1, VEGF-A (Homo sapiens, UniProt P15692).
T1 construct: purchased ProQinase GmbH
T1 sequence (P15692 27-191 isoform P15692-4): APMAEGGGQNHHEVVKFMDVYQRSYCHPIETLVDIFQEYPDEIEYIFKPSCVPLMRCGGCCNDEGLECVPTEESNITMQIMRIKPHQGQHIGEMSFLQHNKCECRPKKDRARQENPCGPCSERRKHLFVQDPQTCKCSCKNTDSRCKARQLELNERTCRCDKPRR
Briefly: VEGF-A induced sprouting of HUVEC, spheroid-based cellular angiogenesis assay. It counts as cell-based. The following applies: VEGF-A 25 ng/mL preincubated with compound, 24 h, read-out: VEGF-A1 IC50. The method in brief: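 Compound (final 100 down to 1.56×10^−6 M) was mixed with growth factor (final 25 ng/mL) for 30 min at 37°C, then added onto collagen-embedded 400-cell HUVEC spheroids.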

Another experiment relates to IL-12p70. Briefly: Cytokine release after LPS induction on human whole blood: IL-12p70. It counts as cell-based.
The subject of experiment [1] is STZ-induced diabetes model. Briefly: STZ-induced diabetic nephropathy, kidney disease and retinopathy model (28 days treatment). Conditions: for Mean day 0 blood glucose Concentration (mmol/L) (SD) / Mean day 28 blood glucose Concentration (mmol/L) (SD) / Blood BUN / Disease Score (kidney, H&E) / Eye area (retinal flatmount area covered by vasculature) / Trichrome staining (Kidney fibrosis) / Blood CRP / Blood IL-6 / Blood TGF-beta / Blood TNF-alpha / Urine albumine creatinine ratio (ALB:CRE): 15 mg/kg IV, Captopril 50 mg/kg PO; for Mean day 28 blood glucose Concentration (mmol/L) (SD) / Blood urea nitrogen levels: day 28; for Blood urea nitrogen levels: vs induced vehicle controls; for Blood BUN / Disease Score (kidney, H&E) / Eye area (retinal flatmount area covered by vasculature) / Trichrome staining (Kidney fibrosis) / Blood CRP / Blood IL-6 / Blood TGF-beta / Blood TNF-alpha / Urine albumine creatinine ratio (ALB:CRE): day 28 of treatment (week 9); for Blood CRP / Blood IL-6 / Blood TGF-beta / Blood TNF-alpha: serum; for Urine albumine creatinine ratio (ALB:CRE): urine pooled per group.
Experimental: A total of 70 female CD-1 mice aged 5-7 weeks weighing approximately 25-30 g were used for the study. These were purchased from Charles River, UK and had 7 days acclimatization period. Animals were housed in IVC cages (up to 5 per cage) with individual mice identified by tail mark. All animals were allowed free access to a standard certified commercial diet and sanitised water during the study. The holding room was maintained under standard conditions: 18-24° C., 55-70% humidity and a 12 h light/dark cycle.
Mice were starved for 6 hours prior to injection. One week after completion of induction glucose levels were monitored and mice with levels less than 15 mml/L (280 mg/gL) were removed from the study as they had not developed the ideal severity of diabetes. Glucose levels were be monitored weekly and 5 weeks after STZ induction biochemical assessment of renal injury was carried out by measuring urine albumin and creatinine levels and confirming they were within the desired range. After successful completion of this stage animals were assigned to treatment groups.
Treatment continued for 4 weeks (28 days) with weekly measurement of blood glucose and urine albumin/creatinine. The study schedule is detailed below looking at weekly (week 5 to 9) blood glucose levels, urine albumin creatinie ratios, and terminal (week 9) blood chemistry and cytokines, kidney histology and eye-retinal leakage.
Urine Albumin: Creatinine (ALB: CRE): Urine was collected weekly and pooled for each treatment group.
ELISAs: At the end of the treatment period blood was collected and processed to serum. Serum levels of CRP, TGF-β, IL-6 and TNF-α were quantified using commercially available ELISA kits, results are shown in Table 56.

[2] abbreviates: Homo sapiens, LPS 10 ng/ml, 18 h, read-out: Whole Blood: IL-12p70 IC50.
Where [3] appears, read: human whole blood, inhibition of LPS induced inflammation, read-out: IC50 IL-12p70.

Turning to `O=C(O)c1cc(NC(=O)c2cc(O)c(C(=O)O)cc2O)cc(NC(=O)c2cc(O)c(C(=O)O)cc2O)c1` [Ib-010a, 3,5-bis(2,5-dihydroxy-4-carboxybenzoylamino)benzoic acid], the pIC50 (in general, −log10 of the IC50, conventionally taken in molar units) on VEGF-A was 4.82. In the experiment on IL-12p70 (setting [2]), the pIC50 was 6.57. Further, the pIC50 in the experiment on IL-12p70 (setting [3]) was 6.57. In experiment [1], the “Mean day 0 blood glucose Concentration (mmol/L) (SD)” value was 25.1 (6.1) mmol/L, the “Mean day 28 blood glucose Concentration (mmol/L) (SD)” value is 31.1 (3.4) mmol/L, the “Blood urea nitrogen levels” value is given as “significantly lower than induced vehicle controls” and the “Blood BUN” value is reported as 20.5 ± 3.4. Besides, in experiment [1], the “Disease Score (kidney, H&E)” value is 6 ± 1; the “Eye area (retinal flatmount area covered by vasculature)” value (shortened to “Eye area”) amounted to 11.8 ± 1; the “Trichrome staining (Kidney fibrosis)” value was determined as 1.97 ± 0.8; the “Blood CRP” value turned out to be 5915 ± 1352. In experiment [1], the “Blood IL-6” value is given as 102.72 ± 25.4, the “Blood TGF-beta” value is recorded as 13.17 ± 3.11, the “Blood TNF-alpha” value was 395.6 ± 46.7 and the “Urine albumine creatinine ratio (ALB:CRE)” value worked out at 24.28. Moreover, the “Urine ALB:CREA” value in experiment [1] (treatment day 28) is “reduced”.

Turning to `O=C(O)c1cc(NC(=O)c2cc(O)c(C(=O)Nc3ccccc3-c3nnn[nH]3)cc2O)ccc1O` [Ic-001a-Tz/004a, 5-(4-(2-(1H-tetrazol-5-yl)phenylaminocarbonyl)-2,5-dihydroxybenzamido)-2-hydroxy benzoic acid], the pIC50 on VEGF-A is 4.60. Further, the pIC50 in the experiment with IL-12p70 (Homo sapiens, 18 h, read-out: Whole Blood: IL-12p70 IC50) was 4.91. In addition, the pIC50 with IL-12p70 (Homo sapiens, read-out: IC50 IL-12p70) was 4.91. In addition, in experiment [1], the “Mean day 0 blood glucose Concentration (mmol/L) (SD)” value is 25.8 (5.7) mmol/L; the “Mean day 28 blood glucose Concentration (mmol/L) (SD)” value is given as 29.6 (7.8) mmol/L; the “Blood BUN” value came to 24.1 ± 4.1; the “Disease Score (kidney, H&E)” value is on record as 9 ± 1. Besides, in experiment [1], the “Eye area” value is on record as 10.7 ± 2.1, the “Trichrome staining (Kidney fibrosis)” value was 2.48 ± 0.46, the “Blood CRP” value was found to be 6077 ± 863 and the “Blood IL-6” value is 104.66 ± 22.89. Besides, in experiment [1], the “Blood TGF-beta” value came to 15.48 ± 1.73, the “Blood TNF-alpha” value was found to be 322.8 ± 40.1 and the “Urine albumine creatinine ratio (ALB:CRE)” value is reported as 35.10.

`O=C(O)c1cc(NC(=O)c2cc(O)c(C(=O)Nc3ccc(O)c(C(=O)O)c3)cc2O)ccc1O` [Ic-007a, 5-(4-(3-carboxy-4-hydroxyphenylaminocarbonyl)-2,5-dihydroxybenzamido)-2-hydroxy benzoic acid]: the pIC50 at VEGF-A was 5.49. Further, the pIC50 in the experiment with IL-12p70 (setting [2]) is 6.31. The pIC50 in the experiment with IL-12p70 (setting [3]) was 6.31. The Retina vasculature coverage entry in experiment [1] (28 days, retinal flat mounts, FITC-dextran) was “significantly decreased”. Besides, in experiment [1], the “Blood urea nitrogen levels” value is on record as “significantly lower than induced vehicle controls”; the “Blood BUN” value turned out to be 21.7 ± 3.0; the “Disease Score (kidney, H&E)” value was 7 ± 1; the “Eye area” value came out at 9.1 ± 1.1. Besides, in experiment [1], the “Trichrome staining (Kidney fibrosis)” value is given as 2.23 ± 0.61, the “Blood CRP” value is 5707 ± 892, the “Blood IL-6” value was 109.27 ± 19.03 and the “Blood TGF-beta” value was determined as 16.66 ± 2.11. The “Blood TNF-alpha” value in experiment [1] is reported as 326.8 ± 63^.

The record behind these values is patent US20230150951A1, “2,5- OR 2,6-DISUBSTITUTED HYDROQUINONE DERIVATIVES WITH AT LEAST ONE CARBOXY, SULFO OR AMIDO GROUP USEFUL AS MEDICAMENTS” (OM PHARMA SA, priority 2020, published 2023).
